Earlier results, collected in patent US8440245B2, “Methods for making nutritional compositions comprising curcuminoids” (priority 2009, dated 2013).

What was measured:
[1] = percentage of ingested curcuminoid actually metabolized by the body
[2] = system: microtubule assembly; settings: @ 40 μm

Metabolic Recovery [1] [%] | SMILES | Inhibition of Microtubule Assembly [2] [% @]
~75 | O=C(/C=C/c1ccc(O)cc1)CC(=O)/C=C/c1ccc(O)cc1 [BDMC, bisdemethoxycurcumin] | –
– | COc1cc(/C=C/C(=O)CC(=O)/C=C/c2ccc(O)c(OC)c2)ccc1O [Curcumin, curcumin] | 50
~50 | COc1cc(/C=C/C(O)=C/C(=O)/C=C/c2ccc(O)cc2)ccc1O [DMC, demethoxycurcumin] | –
